Assay results taken from ChEMBL document CHEMBL1140887, “Synthesis of novel 1,4-benzoxazin-3-one derivatives as inhibitors against tyrosine kinases” (Bioorg Med Chem, 2009).

Molecular target: T1, Vascular endothelial growth factor receptor 2 (Homo sapiens, UniProt P35968)
Assay: Inhibition of KDR expressed in baculovirus system at 4 ug/ml by ELISA

T1 sequence (P35968 whole entry): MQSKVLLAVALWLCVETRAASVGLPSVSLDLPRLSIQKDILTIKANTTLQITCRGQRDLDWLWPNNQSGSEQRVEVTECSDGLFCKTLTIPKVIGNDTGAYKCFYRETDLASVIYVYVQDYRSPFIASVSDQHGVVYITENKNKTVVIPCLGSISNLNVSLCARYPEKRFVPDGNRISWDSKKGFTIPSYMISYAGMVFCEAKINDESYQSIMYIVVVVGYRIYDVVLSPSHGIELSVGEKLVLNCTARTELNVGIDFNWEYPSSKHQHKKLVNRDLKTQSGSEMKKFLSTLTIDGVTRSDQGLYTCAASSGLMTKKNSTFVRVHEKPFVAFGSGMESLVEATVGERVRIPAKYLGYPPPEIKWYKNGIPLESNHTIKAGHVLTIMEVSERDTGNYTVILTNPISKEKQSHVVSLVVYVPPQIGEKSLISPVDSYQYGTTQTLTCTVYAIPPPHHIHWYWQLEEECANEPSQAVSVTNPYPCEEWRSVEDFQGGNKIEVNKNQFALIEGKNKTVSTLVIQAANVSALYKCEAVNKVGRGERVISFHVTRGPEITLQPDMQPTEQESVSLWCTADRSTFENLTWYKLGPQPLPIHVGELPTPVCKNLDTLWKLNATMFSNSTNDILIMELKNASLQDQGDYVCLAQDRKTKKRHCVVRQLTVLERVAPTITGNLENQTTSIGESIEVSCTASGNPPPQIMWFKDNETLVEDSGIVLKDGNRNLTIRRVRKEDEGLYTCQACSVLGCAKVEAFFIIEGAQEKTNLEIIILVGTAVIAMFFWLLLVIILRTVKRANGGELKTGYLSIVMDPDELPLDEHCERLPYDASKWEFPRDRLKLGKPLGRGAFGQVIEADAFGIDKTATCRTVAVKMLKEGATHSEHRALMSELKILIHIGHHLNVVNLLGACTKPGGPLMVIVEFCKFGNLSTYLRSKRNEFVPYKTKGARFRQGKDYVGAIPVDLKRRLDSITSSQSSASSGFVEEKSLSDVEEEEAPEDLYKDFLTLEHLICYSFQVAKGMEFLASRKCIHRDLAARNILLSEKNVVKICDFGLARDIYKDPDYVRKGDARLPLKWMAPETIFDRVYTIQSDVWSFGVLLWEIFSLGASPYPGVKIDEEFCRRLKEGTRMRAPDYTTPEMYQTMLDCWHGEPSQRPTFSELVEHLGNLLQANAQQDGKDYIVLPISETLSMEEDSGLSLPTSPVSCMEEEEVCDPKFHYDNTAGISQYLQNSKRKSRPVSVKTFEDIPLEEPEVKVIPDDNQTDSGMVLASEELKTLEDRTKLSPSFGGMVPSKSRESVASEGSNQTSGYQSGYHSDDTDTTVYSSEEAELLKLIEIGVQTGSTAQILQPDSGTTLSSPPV

Row | SMILES | inhibition
1 | CN1C(=O)/C(=C/c2cccc(/C=C/C(=O)Nc3ccc(N4CCOCC4)cc3)c2)Oc2ccccc21 | 79.9%
2 | CN1C(=O)/C(=C/c2ccc(/C=C/C(=O)N3CCN(CCO)CC3)s2)Oc2ccccc21 | 88.3%
3 | O=C1Nc2ccccc2O/C1=C\c1ccc(/C=C/C(=O)N2CCN(CCO)CC2)o1 | 76.7%
4 | CN1C(=O)/C(=C/c2ccc(/C=C/C(=O)NCc3ccncc3)s2)Oc2ccccc21 | 77.1%
5 | CN1C(=O)/C(=C/c2ccc(/C=C/C(=O)NCc3cccnc3)s2)Oc2ccccc21 | 76.7%
6 | CN1C(=O)/C(=C/c2ccc(/C=C/C(=O)N3CCCC3)s2)Oc2ccccc21 | 79.2%
7 | CN(C)CCNC(=O)/C=C/c1cccc(/C=C2\Oc3ccccc3NC2=O)c1 | 70.8%
8 | CN(C)CCNC(=O)/C=C/c1ccc(/C=C2\Oc3ccccc3N(C)C2=O)s1 | 83.9%

Molecular target: Tyrosine-protein kinase ABL1 (Homo sapiens, UniProt P00519)
Sequence (P00519 whole entry): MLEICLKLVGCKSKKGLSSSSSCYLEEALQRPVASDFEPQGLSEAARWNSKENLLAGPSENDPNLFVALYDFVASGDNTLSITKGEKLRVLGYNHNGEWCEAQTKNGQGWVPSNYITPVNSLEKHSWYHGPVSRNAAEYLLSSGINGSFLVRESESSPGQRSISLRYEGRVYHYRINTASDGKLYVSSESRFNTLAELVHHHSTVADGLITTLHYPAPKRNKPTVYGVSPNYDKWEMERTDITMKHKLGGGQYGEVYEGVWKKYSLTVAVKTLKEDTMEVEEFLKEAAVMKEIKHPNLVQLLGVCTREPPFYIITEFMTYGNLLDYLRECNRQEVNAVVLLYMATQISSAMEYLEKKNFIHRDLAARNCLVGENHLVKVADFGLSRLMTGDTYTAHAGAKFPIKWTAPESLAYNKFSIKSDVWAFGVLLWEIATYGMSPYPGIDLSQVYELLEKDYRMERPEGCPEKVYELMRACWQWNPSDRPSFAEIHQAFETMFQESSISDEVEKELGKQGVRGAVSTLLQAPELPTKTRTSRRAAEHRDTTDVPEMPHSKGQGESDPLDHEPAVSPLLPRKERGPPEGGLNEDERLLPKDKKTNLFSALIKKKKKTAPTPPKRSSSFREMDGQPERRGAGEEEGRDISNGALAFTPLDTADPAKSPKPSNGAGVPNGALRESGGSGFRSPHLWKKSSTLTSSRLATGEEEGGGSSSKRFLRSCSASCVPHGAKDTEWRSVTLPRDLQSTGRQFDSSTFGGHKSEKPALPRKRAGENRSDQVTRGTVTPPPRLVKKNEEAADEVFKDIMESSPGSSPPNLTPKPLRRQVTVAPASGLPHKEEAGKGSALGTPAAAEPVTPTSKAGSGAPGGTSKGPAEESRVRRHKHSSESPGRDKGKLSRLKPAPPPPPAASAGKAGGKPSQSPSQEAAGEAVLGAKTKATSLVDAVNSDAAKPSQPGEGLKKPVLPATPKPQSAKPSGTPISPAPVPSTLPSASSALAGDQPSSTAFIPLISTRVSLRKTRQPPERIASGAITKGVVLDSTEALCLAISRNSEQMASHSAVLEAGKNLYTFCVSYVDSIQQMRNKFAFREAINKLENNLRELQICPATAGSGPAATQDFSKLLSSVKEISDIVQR
Assay: Inhibition of ABL expressed in baculovirus system by ELISA

Row | SMILES | IC50
9 | O=C(/C=C/c1ccc(/C=C2\Oc3ccccc3NC2=O)s1)NCc1ccccn1 | > 991 nM
10 | O=C(/C=C/c1cccc(/C=C2\Oc3ccccc3NC2=O)c1)NCc1ccccn1 | > 1010 nM
11 | CN(C)CCNC(=O)/C=C/c1csc(/C=C2\Oc3ccccc3NC2=O)c1 | > 1040 nM
12 | O=C1Nc2ccccc2O/C1=C\c1ccc(/C=C/C(=O)N2CCCC2)o1 | > 1140 nM
13 | O=C1Nc2ccccc2O/C1=C\c1cc(/C=C/C(=O)N2CCCC2)cs1 | > 1090 nM
14 | CN1C(=O)/C(=C/c2ccc(/C=C/C(=O)NCc3ccncc3)s2)Oc2ccccc21 | 1760 nM
15 | O=C(/C=C/c1ccc(/C=C2\Oc3ccccc3NC2=O)s1)Nc1ccc(N2CCOCC2)cc1 | 290 nM
16 | CN1C(=O)/C(=C/c2ccc(/C=C/C(=O)NCc3cccnc3)s2)Oc2ccccc21 | 1900 nM
17 | CN(C)CCNC(=O)/C=C/c1ccc(/C=C2\Oc3ccccc3N(C)C2=O)s1 | 820 nM

Molecular target: T1, Vascular endothelial growth factor receptor 2
Assay: Inhibition of KDR expressed in baculovirus system by ELISA

Row | SMILES | IC50
18 | CN1C(=O)/C(=C/c2ccc(/C=C/C(=O)NCc3cccnc3)s2)Oc2ccccc21 | 1480 nM
